Values quoted from earlier work in patent publication US7416898B2, “Chemiluminescent 1,2-dioxetanes” (priority 2002, dated 2008).

Settings: compared with 1,2-dioxetanes (14) and (15)

In the case of `O=C(O)CCCOC1(c2cccc(OP(=O)(O)O)c2)OOC12C1CC3CC(C1)CC2C3` (stereo not shown) [Dioxetane 16], the “solubility in an aqueous system” value is listed as “more soluble in an aqueous system than 1,2-dioxetane (14) and (15)”.
